Results published in patent US8865725B2, “Substituted imidazopyrimidin-5(6H)-ones as allosteric modulators of MGLUR5 receptors” (Vanderbilt University, priority 2011, dated 2014).
Where two headings read alike, the source gives them in different places.

Key:
[1] = test system: amphetamine-induced hyperlocomotion; assay: Reversal of amphetamine-induced hyperlocomotion; assay type: in vivo, male Sprague-Dawley rats; conditions: test compound by oral gavage in 20% HP-beta-CD; amphetamine sulfate 1 mg/kg sc; FIG. 4
Method: Locomotor activity was assessed as mean distance traveled (cm) in standard 16×16 photocell testing chambers measuring 43.2 cm (Length)×43.2 cm (Width)×30.5 cm (Height) (Med Associates, St. Albans, Vt.). Animals were habituated to individual activity chambers for at least 30 min prior to drug administration. Following administration of drug or vehicle, activity was recorded for a 90 minute time period. Data was expressed as the mean (±SEM) distance traveled recorded in 5 min intervals over the test period. The data was analyzed using repeated measures analysis of variance (ANOVA) followed by post-hoc testing using Dunnett's test, when appropriate. A difference was considered significant when p≦0.05. […]
The animals were habituated in Smart Open Field locomotor activity test chambers (Hamilton-Kinder, San Diego, Calif.) with 16×16 photobeams to automatically record locomotor activity for 30 min and then dosed with vehicle or test compound. […] At 60 min, all rats were injected subcutaneously with 1 mg/kg amphetamine or vehicle and then monitored for an additional 60 min. Animals are monitored for a total of 120 minutes. Data are expressed as changes in ambulation defined as total number of beam breaks per 5 min periods.
The data for the dose-response studies were analyzed by a between-group analysis of variance. […]

human mGluR5a receptor = human mGluR5a receptor (Homo sapiens, UniProt P41594); assay: Cell-based functional assay (Ca2+ mobilization, FDSS) for positive allosteric modulation of mGluR5; conditions: for EC50: potentiation in presence of EC20 glutamate; for Emax: maximum % effect in concentration-response curve, as percent of response to maximally effective glutamate concentration
human mGluR5a receptor, sequence (P41594 21-1180 isoform P41594-2 limits assumed): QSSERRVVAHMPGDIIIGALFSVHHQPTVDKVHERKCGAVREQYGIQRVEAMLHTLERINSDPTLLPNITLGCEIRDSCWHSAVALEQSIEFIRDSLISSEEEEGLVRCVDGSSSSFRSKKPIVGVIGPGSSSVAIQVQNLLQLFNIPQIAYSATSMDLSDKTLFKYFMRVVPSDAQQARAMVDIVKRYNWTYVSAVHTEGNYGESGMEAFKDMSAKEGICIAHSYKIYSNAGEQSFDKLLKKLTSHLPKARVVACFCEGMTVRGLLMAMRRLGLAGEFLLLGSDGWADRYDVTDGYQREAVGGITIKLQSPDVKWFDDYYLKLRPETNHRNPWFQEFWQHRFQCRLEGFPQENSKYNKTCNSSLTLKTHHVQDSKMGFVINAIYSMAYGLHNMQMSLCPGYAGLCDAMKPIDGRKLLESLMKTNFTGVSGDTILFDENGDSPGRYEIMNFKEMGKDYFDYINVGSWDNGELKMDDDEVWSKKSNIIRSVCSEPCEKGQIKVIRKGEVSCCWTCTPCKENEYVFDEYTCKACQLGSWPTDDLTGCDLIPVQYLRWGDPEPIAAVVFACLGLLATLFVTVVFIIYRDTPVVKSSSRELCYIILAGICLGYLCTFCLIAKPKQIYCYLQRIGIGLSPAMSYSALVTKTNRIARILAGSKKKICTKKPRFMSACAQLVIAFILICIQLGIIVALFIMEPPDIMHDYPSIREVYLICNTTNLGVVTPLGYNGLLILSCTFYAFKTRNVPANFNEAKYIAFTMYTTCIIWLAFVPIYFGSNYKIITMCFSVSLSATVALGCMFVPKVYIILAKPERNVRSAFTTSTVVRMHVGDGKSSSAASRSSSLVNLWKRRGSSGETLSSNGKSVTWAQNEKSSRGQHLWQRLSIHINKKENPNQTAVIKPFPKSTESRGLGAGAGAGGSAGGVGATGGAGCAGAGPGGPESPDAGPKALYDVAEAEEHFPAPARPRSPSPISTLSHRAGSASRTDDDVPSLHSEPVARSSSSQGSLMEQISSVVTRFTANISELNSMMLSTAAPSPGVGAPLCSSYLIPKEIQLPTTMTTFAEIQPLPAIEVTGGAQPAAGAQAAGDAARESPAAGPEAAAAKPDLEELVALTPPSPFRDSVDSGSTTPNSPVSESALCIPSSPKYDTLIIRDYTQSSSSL
Method: The mGluR5 activity was determined using the metabotropic glutamate receptor activity assays in human embryonic kidney cells as described herein, wherein the human embryonic kidney cells were transfected with human mGluR5. The compounds in Table I were synthesized with methods identical or analogous to those shown herein. The Synthetic Route Reference indicated in Table I refers to the Reaction Scheme number described above. The requisite starting materials were commercially available, described in the literature, or readily synthesized by one skilled in the art of organic synthesis.
Human mGluR5a cDNA in pCMV6-XL6 mammalian expression plasmid was purchased from OriGene Technologies, Inc. (catalogue number SC326357) and subcloned into pcDNA3.1(−). […] Monoclones were named for the species (“H” for human) plus the location on the plate (e.g. “10H”).
HEK cells transfected with the human mGluR5a receptor (H10H or H12H cell line) were plated at 15,000 cells/well in clear-bottomed poly-D-lysine-coated assay plates (BD Falcon) in glutamate-glutamine-free growth medium and incubated overnight at 37° C. and 5% CO2. Cell-lines used were either the H10H or H12H cell-lines expressing the human mGluR5 receptor. The following day, the growth medium was removed and the cells were washed with assay buffer containing 1× Hank's balanced salt solution (Invitrogen, Carlsbad, Calif.), 20 mM HEPES, 2.5 mM probenecid, pH 7.4 and left with 20 μL of this reagent. Following this step, the cells were loaded with calcium indicator dye, fluo-4 AM, to a final concentration of 2 μM and incubated for 40-45 min at 37° C. The dye solution was removed and replaced with assay buffer. Cell plates were held for 10-15 min at room temperature and were then loaded into the Functional Drug Screening System 6000 (FDSS 6000, Hamamatsu, Japan).
After establishment of a fluorescence baseline for about 3 seconds, the compounds of the present invention were added to the cells, and the response in cells was measured. 2.3 minutes later an EC20 concentration of the mGluR5 receptor agonist glutamate was added to the cells, and the response of the cells was measured for about 1.7 minutes. All test compounds were dissolved and diluted to a concentration of 10 mM in 100% DMSO and then serially diluted into assay buffer for a 2× stock solution in 0.6% DMSO; stock compounds were then added to the assay for a final DMSO concentration of 0.3% after the first addition to the assay well. Calcium fluorescence measures were recorded as fold over basal fluorescence; raw data was then normalized to the maximal response to glutamate.
The concentration-response curves of compounds of the present invention, obtained in the presence of EC20 of mGluR5 receptor agonist glutamate to determine positive allosteric modulation, were generated using Microsoft Excel with IDBS XLfit add-ins. The raw data file containing all time points was used as the data source in the analysis template. This was saved by the FDSS as a tab-delimitted text file. Data were normalized using a static ratio function (F/F0) for each measurement of the total 350 values per well divided by each well's initial value. Data was then reduced as to peak amplitudes (Max—Initial Min) using a time range that starts approximately 1 second after the glutamate EC20 addition and continues for approximately 40 seconds. This is sufficient time to capture the peak amplitude of the cellular Calcium response. Individual amplitudes were expressed as % EMax by multiplying each amplitude by 100 and then dividing the product by the mean of the amplitudes derived from the glutamate ECMax-treated wells. pEC50 values for test compounds were generated by fitting the normalized values versus the log of the test compound concentration (in mol/L) using a 4 parameter logistic equation where none of the parameters were fixed.

[2] = HEK cells transfected with human mGluR5a (H10H or H12H), read-out: EC50

SMILES	EC50 (human mGluR5a receptor; [2]) [nM]	Emax (human mGluR5a receptor) [%]	melting point [°C]	EC50 (human mGluR5a receptor; HEK cells transfected with human mGluR5a (H10H or H12H), concentration in mol/L, read-out: pEC50 (converted)) [nM]	reversal of amphetamine-induced hyperlocomotion [1]	EC50 (human mGluR5a receptor; EC50 (nM), HEK cells transfected with human mGluR5a (H10H or H12H)) [nM]	EC50 (human mGluR5a receptor; pEC50, HEK cells transfected with human mGluR5a (H10H or H12H), concentration in mol/L) [nM]
O=C1N(c2ccc(F)cc2)CCc2nc(COc3ccccc3)cn21 [6-(4-fluorophenyl)-2-(phenoxymethyl)-7,8-dihydroimidazo[1,2-c]pyrimidin-5(6H)-one]	–	–	–	–	Dose-dependent results for reversal of amphetamine-induced hyperlocomotion	–	–
O=c1n(-c2cccc(F)c2)ccc2nc(COc3ccccc3)cn12 [compound 4]	–	68	123.4	–	–	525	513
Cc1cc(N2CCc3nc(COc4ccccc4)cn3C2=O)ncc1F [compound 40]	351	61	196.5	269	–	–	–

Second part, led by results:

EC50 (human mGluR5a receptor; [2]) [nM]	Emax (human mGluR5a receptor) [%]	melting point [°C]	EC50 (human mGluR5a receptor; HEK cells transfected with human mGluR5a (H10H or H12H), concentration in mol/L, read-out: pEC50 (converted)) [nM]	SMILES	reversal of amphetamine-induced hyperlocomotion [1]	EC50 (human mGluR5a receptor; EC50 (nM), HEK cells transfected with human mGluR5a (H10H or H12H)) [nM]	EC50 (human mGluR5a receptor; pEC50, HEK cells transfected with human mGluR5a (H10H or H12H), concentration in mol/L) [nM]
1240	80	122.3	–	O=c1n(Cc2ccccc2)ccc2nc(COc3ccccc3)cn12 [compound 7]	–	–	–
> 30200	17	200.1	–	O=C1N(c2ccc(F)cc2)CCc2nc(COc3ccccc3)c(Cl)n21 [compound 42, 3-chloro-6-(4-fluoro-phenyl)-2-phenoxymethyl-7,8-dihydro-6H-imidazo[1,2-c]pyrimidin-5-one]	–	–	–
